Laboratory results taken from patent US20100280120A1, “COMPOUND INDUCING ANGIOGENESIS RESPONSE IN ISCHAEMIC TISSUES” (Green Cross Therapeutics Private Limited, priority 2007, published 2010).

Experiments:
Swiss albino mice = assay: Systemic toxicity in mice: serum toxicity marker enzymes (GOT, GPT, ALP); settings: doxorubicin 5 mg/kg body weight
Procedure: All animal experiments were performed following ‘Principles of laboratory animal care’ (NIH publication No. 85-23, revised in 1985) as well as specific Indian laws on ‘Protection of Animals’ under the provision o authorized investigators. Swiss albino mice (˜20 g each; 10-12 weeks old; 3 mice in each group) were randomly divided into (i) untreated set (i.v. injected with PBS as vehicle only) and (ii) drug-treated set (Compound of this invention 0.1, 0.3, 1.0, 3.0, 10 and 30 mg/kg body weight) for 14 days. Untreated mice received sterile PBS as carrier vehicle. Doxorubicin (5 mg/kg body weight) was used as positive control for toxicity assays.
For statistical analysis, one-way analysis of variance (ANOVA) was conducted, followed by the Newman-Keuls multiple comparison test. Mean differences with p<0.05 were considered statistically significant.
Hepato and cardio toxicity due to drug regimens are the shortfall in many instances. The serum levels of GOT, GPT and ALP are clinical indicators of drug-induced toxicity. Blood samples were collected from the retro-orbital plexus of normal and the subject compound-treated mice. Total serum glutamate oxaloacetate transaminase ([…]), glutamate pyruvate transaminase (SGPT), and alkaline phosphate were assayed according to standard protocols.
Serum GOT, GPT and ALP activities as a marker of systemic toxicity were measured from blood of untreated or treated mice.

[1] = system: primary cells or cell lines from various origin (human cell lines); assay: In vitro toxicity screening of primary cells or cell lines, Trypan blue-exclusion viability test; assay type: cell-based
Procedure: To study the toxic effects of compound, a wide spectrum of primary cells or cell lines from various origin were screened for viability, using Trypan blue-exclusion test. Cells were grown in cultures in DMEM/F-12 (1:1) or RPMI 1640 media supplemented with 10% FBS, insulin (0.1 units/ml), L-glutamine (2 mM), sodium pyruvate (100 μg/ml), non-essential amino acids (100 μM), penicillin (100 units/ml) and streptomycin ([…]). Cells were incubated at 37° C. in a humidified atmosphere of 5% CO2.
Different cells from different origins were cultured in vitro. Various doses of GC-S were added in culture medium. After 24 h number of surviving cells was counted. Each experiment was performed in triplicate and the values agreed well with those of independent experiments

[2] = system: binding of human VEGF to its receptor on A549 cells; assay: Angiogenic potential: binding of human VEGF to its receptors on A549 cells (anti-VEGF immunofluorescence, confocal); assay type: cell-based
Procedure: The angiogenic potential of compound was tested by binding human VEGF to its putative receptors. Human lung epithelial cells (A549 which are highly metastatic and therefore angiogenic in nature) were grown on coverslip in DMEM/F-12 (1:1) or RPMI 1640 media supplemented with 10% FBS, insulin (0.1 units/ml), L-glutamine (2 mM), sodium pyruvate (100 μg/ml), non-essential amino acids (100 μM), penicillin (100 units/ml) and streptomycin ([…]). Cells were incubated at 37° C. in a humidified atmosphere of 5% CO2. The pH of the medium was maintained at 6.2 for the binding assay of VEGF to its receptor in the presence of compound. The cells were pre-treated with media alone or with 25 μg/ml compound for 30 min. The cells were then incubated with 10 ng/ml human VEGF for further 30 min at 37° C. in a humidified atmosphere of 5% CO2. The cells were fixed and stained with anti-VEGF antibody coupled with Alexaflour 488. The cells were visualized in Zeiss-confocal microscope.

Structure (SMILES)	ALP (Swiss albino mice)	SGOT (Swiss albino mice)	SGPT (Swiss albino mice)	Levels of serum GOT and GPT (Swiss albino mice; positive control, p<0.05)	Toxicity to cells ([1]; 100 and 200 μg/mL doses, below significant killing)	Toxic effects on cells ([1]; doses 12.5 to 200 μg/mL range)	Percent of cell killing ([1]; up to 50 μg/mL doses, 24 h, Trypan blue exclusion)	Increase of binding of VEGF to its receptor ([2]; A549 cells pre-incubated with 25 μg/ml compound 30 min, then 10 ng/ml human VEGF 30 min, pH 6.2)	VEGF binding on the membrane of normal A549 cell after compound treatment ([2]; A549 cells, compound alone, no added VEGF)
COc1cccc2c1C(=O)c1c(O)c3c(c(O)c1C2=O)C[C@@](O)(C(=O)CO)C[C@@H]3O[C@H]1C[C@H](N)[C@H](O)[C@H](C)O1 [Doxorubicin]	43 KA units	79 IU/dL	68 IU/dL	significantly increased	–	–	–	–	–
NCCCCC(N)C(=O)O (stereo not drawn) [Compound of this invention]	–	–	–	–	mild toxicity	no toxic effects	less than 5%	10-15 times	remains unaltered
